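Cultured in 96-well plates, cells were exposed to test compound for 48 hours across five concentrations. TGI denotes the concentration required for complete inhibition of growth.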
How the values were obtained:
Assay in all cases: inhibition of tumour cell growth, NCI panel, 48 h
[1] = system: CCRF-CEM leukemia
[2] = system: SR leukemia
[3] = system: NCI-H23 lung
[4] = system: RXF 393 renal
[5] = system: TK-10 renal
[6] = system: UACC-257 melanoma
[7] = system: SF-295 CNS
[8] = system: SNB-75 CNS
[9] = system: UO-31 renal
[10] = system: MOLT-4 leukemia
[11] = system: A498 renal
[12] = system: OVCAR-3 ovarian
[13] = system: EKVX NSCLC
[14] = system: SK-OV-3 ovarian
[15] = system: NCI-H522 lung
[16] = system: SK-MEL-5 melanoma
[17] = system: OVCAR-5 ovarian
[18] = system: 786-0 renal
[19] = system: IGROV1 ovarian
[20] = system: HCT-116 colon
[21] = system: CAKI-1 renal
[22] = system: LOX IMVI melanoma
[23] = system: HOP-62 NSCLC
[24] = system: SN12C renal
[25] = system: SK-MEL-28 melanoma
[26] = system: NCI-H460 lung
[27] = system: K-562 leukemia
[28] = system: HL-60(TB) leukemia
[29] = system: SW-620 colon
[30] = system: KM20L2 colon
[31] = system: SK-MEL-2 melanoma
[32] = system: KM12 colon
[33] = system: OVCAR-8 ovarian
[34] = system: HCC-2998 colon
[35] = system: UACC-62 melanoma
[36] = system: HCT-15 colon
[37] = system: HOP-92 NSCLC
[38] = system: SNB-78 CNS
[39] = system: SF-268 CNS
[40] = system: NCI-H226 lung
[41] = system: M14 melanoma
[42] = system: A549 NSCLC
[43] = system: HT29 colon
[44] = system: U251 CNS
[45] = system: M19-MEL melanoma
[46] = system: RPMI-8226 leukemia
[47] = system: ACHN renal
[48] = system: SNB-19 CNS
[49] = system: SF-539 CNS
[50] = system: LXFL 529 NSCLC
[51] = system: HOP-18 NSCLC
[52] = system: DMS 114 small cell lung
[53] = system: OVCAR-4 ovarian
[54] = system: XF 498 CNS
[55] = system: COLO 205 colon
[56] = system: MALME-3M melanoma
[57] = system: DLD-1 colon
[58] = system: MDA-MB-435
[59] = system: MDA-N
[60] = system: PC-3 prostate
[61] = system: T-47D breast
[62] = system: HS 578T breast
[63] = system: MCF7 breast
[64] = system: BT-549 breast
[65] = system: DU-145 prostate
[66] = system: MDA-MB-231 breast
[67] = system: NCI/ADR-RES ovarian
[68] = system: RXF-631 renal

## Cn1c(=O)nc2n(-c3ccc(Cl)cc3)c3ccc(Cl)cc3nc-2c1=O
[1]
  TGI: 85.6 µM
[2]
  TGI: 58 µM
[3]
  TGI: 8.65 µM
[4]
  TGI: 7.93 µM
[5]
  TGI: 53.6 µM
[6]
  TGI: 14.5 µM
[7]
  TGI: 19 µM
[8]
  TGI: 10.4 µM
[9]
  TGI: 39.8 µM
[10]
  TGI: 65.7 µM
[11]
  TGI: 24.6 µM
[12]
  TGI: 8.14 µM
[13]
  TGI: 28.7 µM
[14]
  TGI: > 100 µM
[15]
  TGI: 21.3 µM
[16]
  TGI: 2.37 µM
[17]
  TGI: 29.6 µM
[18]
  TGI: 54.7 µM
[19]
  TGI: 51.1 µM
[20]
  TGI: 20.9 µM
[21]
  TGI: 25.9 µM
[22]
  TGI: 13.1 µM
[23]
  TGI: 49.5 µM
[24]
  TGI: 27.6 µM
[25]
  TGI: 21.4 µM
[26]
  TGI: 33.7 µM
[27]
  TGI: 37.4 µM
[28]
  TGI: 18.9 µM
[29]
  TGI: 19.2 µM
[30]
  TGI: 36.7 µM
[31]
  TGI: 16.9 µM
[32]
  TGI: 32 µM
[33]
  TGI: 52.5 µM
[34]
  TGI: 40.6 µM
[35]
  TGI: 3.09 µM
[36]
  TGI: 26.5 µM
[37]
  TGI: 25.1 µM
[38]
  TGI: 29.6 µM
[39]
  TGI: 19.7 µM
[40]
  TGI: 27.9 µM
[41]
  TGI: 21.8 µM
[42]
  TGI: > 100 µM
[43]
  TGI: 59.2 µM

## O=c1c2ccccc2[nH]c(=S)n1-c1ccc(Br)cc1
[44]
  TGI: > 100 µM
[2]
  TGI: > 100 µM
[3]
  TGI: > 100 µM
[4]
  TGI: > 100 µM
[5]
  TGI: > 100 µM
[45]
  TGI: > 100 µM
[46]
  TGI: > 100 µM
[6]
  TGI: > 100 µM
[7]
  TGI: > 100 µM
[8]
  TGI: > 100 µM
[9]
  TGI: > 100 µM
[47]
  TGI: > 100 µM
[10]
  TGI: > 100 µM
[48]
  TGI: > 100 µM
[11]
  TGI: > 100 µM
[12]
  TGI: > 100 µM
[13]
  TGI: > 100 µM
[15]
  TGI: > 100 µM
[49]
  TGI: > 100 µM
[18]
  TGI: > 100 µM
[19]
  TGI: > 100 µM
[20]
  TGI: > 100 µM
[22]
  TGI: > 100 µM
[23]
  TGI: > 100 µM
[24]
  TGI: > 100 µM
[25]
  TGI: > 100 µM
[26]
  TGI: > 100 µM
[50]
  TGI: > 100 µM
[27]
  TGI: > 100 µM
[51]
  TGI: > 100 µM
[52]
  TGI: > 100 µM
[28]
  TGI: > 100 µM
[29]
  TGI: > 100 µM
[30]
  TGI: > 100 µM
[31]
  TGI: > 100 µM
[32]
  TGI: > 100 µM
[33]
  TGI: > 100 µM
[53]
  TGI: > 100 µM
[34]
  TGI: > 100 µM
[36]
  TGI: > 100 µM
[37]
  TGI: 70 µM
[54]
  TGI: > 100 µM
[38]
  TGI: > 100 µM
[55]
  TGI: > 100 µM
[39]
  TGI: > 100 µM
[56]
  TGI: > 100 µM
[40]
  TGI: > 100 µM
[42]
  TGI: > 100 µM
[57]
  TGI: > 100 µM
[43]
  TGI: > 100 µM

## CC(=O)NNc1nc(C)c(C(/C=C/c2ccc3c(c2)OCO3)=N/Nc2ccccc2)s1
[1]
  TGI: > 100 µM
[44]
  TGI: > 100 µM
[2]
  TGI: > 100 µM
[3]
  TGI: > 100 µM
[4]
  TGI: > 100 µM
[5]
  TGI: > 100 µM
[58]
  TGI: > 100 µM
[46]
  TGI: > 100 µM
[6]
  TGI: > 100 µM
[7]
  TGI: > 100 µM
[8]
  TGI: > 100 µM
[9]
  TGI: > 100 µM
[59]
  TGI: > 100 µM
[47]
  TGI: > 100 µM
[60]
  TGI: > 100 µM
[10]
  TGI: > 100 µM
[48]
  TGI: > 100 µM
[11]
  TGI: > 100 µM
[12]
  TGI: > 100 µM
[13]
  TGI: > 100 µM
[14]
  TGI: > 100 µM
[15]
  TGI: > 100 µM
[16]
  TGI: > 100 µM
[17]
  TGI: > 100 µM
[49]
  TGI: > 100 µM
[61]
  TGI: > 100 µM
[62]
  TGI: > 100 µM
[18]
  TGI: > 100 µM
[19]
  TGI: > 100 µM
[20]
  TGI: > 100 µM
[21]
  TGI: > 100 µM
[22]
  TGI: > 100 µM
[23]
  TGI: > 100 µM
[24]
  TGI: > 100 µM
[25]
  TGI: > 100 µM
[63]
  TGI: > 100 µM
[64]
  TGI: > 100 µM
[26]
  TGI: > 100 µM
[27]
  TGI: > 100 µM
[28]
  TGI: > 100 µM
[29]
  TGI: > 100 µM
[31]
  TGI: > 100 µM
[32]
  TGI: > 100 µM
[33]
  TGI: > 100 µM
[53]
  TGI: > 100 µM
[34]
  TGI: > 100 µM
[65]
  TGI: > 100 µM
[35]
  TGI: > 100 µM
[66]
  TGI: > 100 µM
[36]
  TGI: > 100 µM
[37]
  TGI: > 100 µM
[67]
  TGI: > 100 µM
[55]
  TGI: > 100 µM
[39]
  TGI: > 100 µM
[56]
  TGI: > 100 µM
[40]
  TGI: > 100 µM
[41]
  TGI: > 100 µM
[42]
  TGI: > 100 µM
[43]
  TGI: > 100 µM

## CC1=C(C(=O)Nc2c(C)cccc2C)C(c2ccc3c(c2)OCO3)C(C(=O)Nc2c(C)cccc2C)=C(C)N1
[1]
  TGI: 41.9 µM
[44]
  TGI: 29.1 µM
[2]
  TGI: 90.9 µM
[3]
  TGI: 29.8 µM
[68]
  TGI: 42.3 µM
[4]
  TGI: 33.9 µM
[5]
  TGI: 62.1 µM
[6]
  TGI: 32.3 µM
[7]
  TGI: 32.7 µM
[8]
  TGI: 63.1 µM
[9]
  TGI: 30.6 µM
[47]
  TGI: 35.2 µM
[10]
  TGI: 61.5 µM
[48]
  TGI: 32 µM
[12]
  TGI: 98.6 µM
[13]
  TGI: 53.3 µM
[14]
  TGI: > 100 µM
[15]
  TGI: 31.7 µM
[17]
  TGI: 33.7 µM
[49]
  TGI: 37.7 µM
[18]
  TGI: 28.2 µM
[19]
  TGI: 28.5 µM
[20]
  TGI: 27.3 µM
[21]
  TGI: 59 µM
[22]
  TGI: 28.1 µM
[23]
  TGI: 44 µM
[24]
  TGI: 32.7 µM
[25]
  TGI: 46 µM
[26]
  TGI: 39.9 µM
[50]
  TGI: 43.9 µM
[27]
  TGI: 73 µM
[51]
  TGI: 48.2 µM
[52]
  TGI: 38.1 µM
[28]
  TGI: 56.1 µM
[29]
  TGI: 36.5 µM
[30]
  TGI: 29 µM
[32]
  TGI: 29.1 µM
[33]
  TGI: 44.2 µM
[53]
  TGI: 77.3 µM
[34]
  TGI: 32.3 µM
[35]
  TGI: 10.9 µM
[38]
  TGI: 78.8 µM
[55]
  TGI: 47.1 µM
[39]
  TGI: 48.5 µM
[56]
  TGI: 45.7 µM
[40]
  TGI: 32.3 µM
[41]
  TGI: 33.9 µM
[42]
  TGI: 59 µM
[57]
  TGI: 86.8 µM
[43]
  TGI: 30.2 µM

Source: PubChem BioAssay (NCI)
